Structures can show the parent of a compound that is named as a salt. Where two headings read alike, the source gives them in different places.
Key:
[1] = system: patients with a history of atrial fibrillation or atrial flutter; assay: Prospective, multinational, double-blind, randomized, placebo-controlled, parallel group trial (ATHENA) of dronedarone hydrochloride for prevention of stroke; assay type: in vivo, human
Procedure: Efficacy of dronedarone and its pharmaceutically acceptable salts versus placebo for the prevention of stroke was provided via dronedarone hydrochloride during a prospective, multinational, double-blind, randomized, multi-center, placebo-controlled, parallel group trial.
Eligible patients have a history of atrial fibrillation or atrial flutter and/or may be in normal sinus rhythm or in atrial fibrillation or flutter at the time of recruitment. Recruitment of patients was conducted taking into account the following inclusion criteria:
1) One of the following risk factors had to be present: • age equal to or greater than 70 years, • hypertension (taking antihypertensives of at least two different classes), • diabetes, • history of cerebral stroke (transient ischemic event or completed cerebral stroke) or of systemic embolism, • left atrial diameter greater than or equal to 50 mm measured by echocardiography, • left ventricular ejection fraction less than 40%, measured by two-dimensional echography; or • age equal to or above 70, or even above 75, possibly combined with at least one of the risk factors below: • hypertension (taking antihypertensives of at least two different classes), • diabetes, • history of cerebral stroke (transient ischemic event or completed cerebral stroke) or of systemic embolism, • left atrial diameter greater than or equal to 50 mm measured by echocardiography, • left ventricular ejection fraction less than 40%, measured by two-dimensional echography;
2) availability of one electrocardiogram within the last six months, showing that the patients was or is in atrial fibrillation/flutter,
3) availability of one electrocardiogram within the last six months, showing that the patients was or is in sinus rhythm.
Study drug treatment units (placebo or dronedarone hydrochloride corresponding to 400 mg of base) were such that each patient took one tablet in the morning during or shortly after breakfast and one tablet in the evening during or shortly after dinner.
The treatment duration depended on the time of recruitment of each patient in the trial and could be comprised from 12 months to 30 months.
Results were calculated using non-parametric Kaplan-Meier estimate.
Cox's proportional hazard model was used to estimate the hazard ratio also called relative risk.
Relative risk (RR) is the ratio between the risk of having a stroke (or transient ischemic attack (TIA)) for patients treated with dronedarone and the risk of having a stroke (or transient ischemic attack (TIA)) for patients treated with placebo.
Percentage of decrease of an event is calculated as follow: […]

[2] = system: patients with persistent atrial fibrillation; conditions: SAFE-T trial, cited from earlier work; for increasing the time to a recurrence of atrial fibrillation, versus placebo / effectiveness in increasing time to recurrence of atrial fibrillation relative to sotalol: P<0.001; for number of strokes per 100 patient-years of follow-up: calculated from page 1866 of Singh et al., placebo 1.91
[3] = on-treatment analysis of 30 months
[4] = versus placebo, Cox's proportional hazard model

## CCCCc1oc2ccc(NS(C)(=O)=O)cc2c1C(=O)c1ccc(OCCCN(CCCC)CCCC)cc1 [dronedarone hydrochloride, 2-n-butyl-3-[4-(3-di-n-butylaminopropoxy)benzoyl]-5-méthylsulfonamido-benzofuranne]
[1]; 2301 of 4628 patients on drug, 400 mg base twice daily, 12 to 30 months, placebo group 18 events
  fatal stroke events reported: 11
[1]; 2301 of 4628 patients on drug, 400 mg base twice daily, 12 to 30 months, placebo group 49 events
  ischemic stroke events reported: 33
[1]; 2301 of 4628 patients on drug, 400 mg base twice daily, 12 to 30 months, placebo group 70 events
  stroke events reported: 45
[1]; 2301 of 4628 patients on drug, 400 mg base twice daily, 12 to 30 months, placebo group 80 events
  stroke or TIA events reported: 52
[1]; 2301 of 4628 patients on drug, 400 mg base twice daily, 12 to 30 months, placebo group 89 events
  ACS events reported (cardiovascular hospitalization for Acute Coronary Syndrome): 62
[1]; 2301 of 4628 patients on drug, 400 mg base twice daily, 12 to 30 months, placebo group 216 events
  stroke, Acute Coronary Syndrome (ACS) or cardiovascular death events reported: 147
[1]; 2301 of 4628 patients on drug, 400 mg base twice daily, 12 to 30 months, placebo group 262 events
  stroke, Acute Coronary Syndrome (ACS) or death events reported: 196
[1]; [3]
  time course of effect on first stroke (FIG. 2, Kaplan Meier cumulative incidence curves): occurred early and increased over time
  time course of effect on first stroke or TIA (FIG. 1, Kaplan Meier cumulative incidence curves): occurred early and increased over time
[1]; [4]
  relative risk of cardiovascular hospitalization for Acute Coronary Syndrome: 0.70
  relative risk of fatal stroke: 0.62
  relative risk of ischemic stroke: 0.68
  relative risk of stroke: 0.65
  relative risk of stroke or TIA: 0.65
  relative risk of stroke, Acute Coronary Syndrome (ACS) or cardiovascular death: 0.68
[1]; versus placebo, x=1-RR
  decrease of the relative risk of cardiovascular hospitalization for Acute Coronary Syndrome: 30%
  decrease of the relative risk of fatal stroke: 38%
  decrease of the relative risk of ischemic stroke: 32%
  decrease of the relative risk of stroke: 35%
  decrease of the relative risk of stroke or TIA: 35%
  decrease of the relative risk of stroke, Acute Coronary Syndrome (ACS) or cardiovascular death: 32%
  decrease of the relative risk of stroke, Acute Coronary Syndrome (ACS) or death: 25%

## CCCCc1oc2ccccc2c1C(=O)c1cc(I)c(OCCN(CC)CC)c(I)c1 [amiodarone]
[2]
  increasing the time to a recurrence of atrial fibrillation, versus placebo: significantly more effective than placebo
  number of strokes per 100 patient-years of follow-up: 2.06 per 100 patient-years
[2]; analysis according to the treatment actually received
  effectiveness in increasing time to recurrence of atrial fibrillation relative to sotalol: four times as effective
[2]; intention-to-treat analysis
  effectiveness in increasing time to recurrence of atrial fibrillation relative to sotalol: six times as effective as sotalol

## CC(C)NCC(O)c1ccc(NS(C)(=O)=O)cc1 (stereo not shown) [sotalol]
[2]
  increasing the time to a recurrence of atrial fibrillation, versus placebo: significantly more effective than placebo
  number of strokes per 100 patient-years of follow-up: 2.71 per 100 patient-years
